According to patent US8586556B2, “Methods, compositions and drug delivery systems for intraocular delivery of siRNA molecules” (Allergan, Inc., priority 2006, dated 2013):

Test system: neovascularization
Assay: Placement of the drug delivery systems into the vitreous of an eye: duration of therapeutic benefit
Format: in vivo
Conditions: drug delivery system placed into the vitreous of an eye
From the text: (§1) Drug delivery systems which comprise about 86.1 milligrams of Cand5 can be produced similar to those systems described in Examples 1. Such drug delivery systems release Cand5 at a rate from about 49.7 micrograms per day to about 4970 micrograms per day. The release rates can be measured using in vitro and/or in vivo assays as described above. […] Improvements in patient function, such as vision and intraocular pressure, can be observed at longer time periods.
as §1, with “siRNA Z” for “Cand5”, “1, above.” for “1.”

## Cand5: siRNA from Acuity Pharmaceuticals/Avecia that silences genes producing VEGF; sense SEQ ID NO: 3, antisense SEQ ID NO: 4 (sense ACCUCACCAAGGCCAGCAC; antisense GUGCUGGCCUUGGUGAGGU; listed as RNA, chemistry not fully specified; listed as Homo Sapiens)
  duration of therapeutic benefits, such as the treatment of neovascularization, after a single administration: at least about thirty days
